# Assay results published in ChEMBL document CHEMBL5724914, “Linking interpersonal differences in gut microbiota composition and drug biotransformation activity” (2024).
# Tests used:
# [1] = (§1) The drug is tested on Z-019 corresponding to rat gut metagenome with ENA study accession number: PRJEB37062 and ENA sample accession number: ERS12561818 for biotransformation under anaerobic condition. The drug concentrations were measured over 9 timepoints collected between 0 and 24 hours of incubation by liquid-chromatography-coupled mass spectrometry (LC–MS); conditions: 2 µM
# [2] = human gut metagenome, 24 h, 2 µM
# [3] = human gut metagenome, 24 h, 2 µM; remark: listed apart in the source
# [4] = as §1, with “on WLS-010” for “on Z-019”, “to human” for “to rat”, “number: ERS12561743” for “number: ERS12561818”; conditions: 2 µM
# [5] = human gut metagenome, 24 h, 2 µM; remark: listed apart in the source
# [6] = human gut metagenome, 24 h, 2 µM; remark: listed apart in the source
# [7] = as §1, with “on Z-003” for “on Z-019”, “to pig” for “to rat”, “number: ERS12561803” for “number: ERS12561818”; conditions: 2 µM
# [8] = as §1, with “Z-007” for “Z-019”, “ERS12561807” for “ERS12561818”; conditions: 2 µM
# [9] = human gut metagenome, 24 h, 2 µM; remark: listed apart in the source
# [10] = human gut metagenome, 24 h, 2 µM; remark: listed apart in the source
# [11] = as §1, with “Z-005” for “Z-019”, “to” for “to rat gut”, “ERS12561805” for “ERS12561818”; conditions: 2 µM
# [12] = as §1, with “on WLS-077” for “on Z-019”, “to human” for “to rat”, “number: ERS12561750” for “number: ERS12561818”; conditions: 2 µM
# [13] = as §1, with “on WLS-086” for “on Z-019”, “to human” for “to rat”, “number: ERS12561752” for “number: ERS12561818”; conditions: 2 µM
# [14] = human gut metagenome, 24 h, 2 µM; remark: listed apart in the source
# [15] = human gut metagenome, 24 h, 2 µM; remark: listed apart in the source
# [16] = human gut metagenome, 24 h, 2 µM; remark: listed apart in the source
# [17] = human gut metagenome, 24 h, 2 µM; remark: listed apart in the source
# [18] = as §1, with “on Z-006” for “on Z-019”, “to mouse” for “to rat”, “number: ERS12561806” for “number: ERS12561818”; conditions: 2 µM
# [19] = human gut metagenome, 24 h, 2 µM; remark: listed apart in the source
# [20] = as §1, with “on Z-011” for “on Z-019”, “to mouse” for “to rat”, “number: ERS12561811” for “number: ERS12561818”; conditions: 2 µM
# Note: call rule not given here.
smiles,measurement,setting,value
CCC1(c2ccc(N)cc2)CCC(=O)NC1=O (stereo not given) [AMINOGLUTETHIMIDE],Bacterial Biotransformation,[1],Compound NOT metabolized
same,Bacterial Biotransformation,[2],Compound NOT metabolized
same,Bacterial Biotransformation,[3],Compound NOT metabolized
same,Bacterial Biotransformation,[4],Compound NOT metabolized
same,Bacterial Biotransformation,[5],Compound NOT metabolized
same,Bacterial Biotransformation,[6],Compound NOT metabolized
same,Bacterial Biotransformation,[7],Compound NOT metabolized
same,Bacterial Biotransformation,[8],Compound NOT metabolized
same,Bacterial Biotransformation,[9],Compound NOT metabolized
same,Bacterial Biotransformation,[10],Compound NOT metabolized
same,Bacterial Biotransformation,[11],Compound NOT metabolized
same,Bacterial Biotransformation,[12],Compound NOT metabolized
same,Bacterial Biotransformation,[13],Compound NOT metabolized
same,Bacterial Biotransformation,[14],Compound NOT metabolized
same,Bacterial Biotransformation,[15],Compound NOT metabolized
same,Bacterial Biotransformation,[16],Compound NOT metabolized
same,Bacterial Biotransformation,[17],Compound NOT metabolized
same,Bacterial Biotransformation,[18],Compound NOT metabolized
same,Bacterial Biotransformation,[19],Compound NOT metabolized
C[C@@H]1CC[C@H]2[C@@H](C)C(=O)O[C@@H]3O[C@@]4(C)CC[C@@H]1[C@]32OO4 [ARTEMISININ],Bacterial Biotransformation,[1],Compound metabolized
same,Bacterial Biotransformation,[2],Compound metabolized
same,Bacterial Biotransformation,[3],Compound metabolized
same,Bacterial Biotransformation,[4],Compound metabolized
same,Bacterial Biotransformation,[5],Compound metabolized
same,Bacterial Biotransformation,[6],Compound metabolized
same,Bacterial Biotransformation,[10],Compound metabolized
same,Bacterial Biotransformation,[12],Compound metabolized
same,Bacterial Biotransformation,[13],Compound metabolized
same,Bacterial Biotransformation,[14],Compound metabolized
same,Bacterial Biotransformation,[15],Compound metabolized
same,Bacterial Biotransformation,[16],Compound metabolized
same,Bacterial Biotransformation,[17],Compound metabolized
same,Bacterial Biotransformation,[18],Compound NOT metabolized
same,Bacterial Biotransformation,[19],Compound metabolized
CC(C)c1c(C(=O)Nc2ccccc2)c(-c2ccccc2)c(-c2ccc(F)cc2)n1CC[C@@H](O)C[C@@H](O)CC(=O)O [ATORVASTATIN],Bacterial Biotransformation,[1],Compound NOT metabolized
same,Bacterial Biotransformation,[2],Compound metabolized
same,Bacterial Biotransformation,[3],Compound metabolized
same,Bacterial Biotransformation,[5],Compound metabolized
same,Bacterial Biotransformation,[6],Compound NOT metabolized
same,Bacterial Biotransformation,[7],Compound metabolized
same,Bacterial Biotransformation,[8],Compound NOT metabolized
same,Bacterial Biotransformation,[9],Compound NOT metabolized
same,Bacterial Biotransformation,[10],Compound metabolized
same,Bacterial Biotransformation,[11],Compound metabolized
same,Bacterial Biotransformation,[12],Compound metabolized
same,Bacterial Biotransformation,[13],Compound metabolized
same,Bacterial Biotransformation,[14],Compound NOT metabolized
same,Bacterial Biotransformation,[20],Compound NOT metabolized
same,Bacterial Biotransformation,[15],Compound NOT metabolized
same,Bacterial Biotransformation,[16],Compound NOT metabolized
same,Bacterial Biotransformation,[17],Compound metabolized
same,Bacterial Biotransformation,[18],Compound NOT metabolized
same,Bacterial Biotransformation,[19],Compound metabolized
CC[C@H](C)C(=O)O[C@H]1C[C@@H](C)C=C2C=C[C@H](C)[C@H](CC[C@@H]3C[C@@H](O)CC(=O)O3)[C@H]21 [LOVASTATIN],Bacterial Biotransformation,[1],Compound metabolized
same,Bacterial Biotransformation,[2],Compound NOT metabolized
same,Bacterial Biotransformation,[3],Compound NOT metabolized
same,Bacterial Biotransformation,[4],Compound NOT metabolized
same,Bacterial Biotransformation,[5],Compound NOT metabolized
same,Bacterial Biotransformation,[6],Compound metabolized
same,Bacterial Biotransformation,[7],Compound NOT metabolized
same,Bacterial Biotransformation,[8],Compound NOT metabolized
same,Bacterial Biotransformation,[9],Compound NOT metabolized
same,Bacterial Biotransformation,[11],Compound NOT metabolized
same,Bacterial Biotransformation,[12],Compound NOT metabolized
same,Bacterial Biotransformation,[13],Compound NOT metabolized
same,Bacterial Biotransformation,[20],Compound metabolized
same,Bacterial Biotransformation,[15],Compound NOT metabolized
same,Bacterial Biotransformation,[16],Compound NOT metabolized
same,Bacterial Biotransformation,[17],Compound NOT metabolized
same,Bacterial Biotransformation,[18],Compound NOT metabolized
same,Bacterial Biotransformation,[19],Compound metabolized
COc1ccc2[nH]c([S+]([O-])Cc3ncc(C)c(OC)c3C)nc2c1 (stereo not given) [OMEPRAZOLE],Bacterial Biotransformation,[1],Compound NOT metabolized
same,Bacterial Biotransformation,[2],Compound metabolized
same,Bacterial Biotransformation,[3],Compound metabolized
same,Bacterial Biotransformation,[5],Compound metabolized
same,Bacterial Biotransformation,[6],Compound metabolized
same,Bacterial Biotransformation,[7],Compound NOT metabolized
same,Bacterial Biotransformation,[8],Compound NOT metabolized
same,Bacterial Biotransformation,[9],Compound metabolized
same,Bacterial Biotransformation,[10],Compound metabolized
same,Bacterial Biotransformation,[11],Compound NOT metabolized
same,Bacterial Biotransformation,[12],Compound metabolized
same,Bacterial Biotransformation,[13],Compound metabolized
same,Bacterial Biotransformation,[14],Compound metabolized
same,Bacterial Biotransformation,[20],Compound NOT metabolized
same,Bacterial Biotransformation,[15],Compound metabolized
same,Bacterial Biotransformation,[16],Compound metabolized
same,Bacterial Biotransformation,[17],Compound metabolized
same,Bacterial Biotransformation,[18],Compound NOT metabolized
same,Bacterial Biotransformation,[19],Compound metabolized
CN(C)CCc1c[nH]c2ccc(Cn3cncn3)cc12.O=C(O)c1ccccc1 [RIZATRIPTAN BENZOATE],Bacterial Biotransformation,[1],Compound NOT metabolized
same,Bacterial Biotransformation,[2],Compound NOT metabolized
same,Bacterial Biotransformation,[3],Compound NOT metabolized
same,Bacterial Biotransformation,[4],Compound NOT metabolized
same,Bacterial Biotransformation,[5],Compound NOT metabolized
same,Bacterial Biotransformation,[7],Compound NOT metabolized
same,Bacterial Biotransformation,[8],Compound NOT metabolized
same,Bacterial Biotransformation,[9],Compound NOT metabolized
same,Bacterial Biotransformation,[10],Compound NOT metabolized
same,Bacterial Biotransformation,[11],Compound NOT metabolized
same,Bacterial Biotransformation,[12],Compound NOT metabolized
same,Bacterial Biotransformation,[13],Compound NOT metabolized
same,Bacterial Biotransformation,[14],Compound NOT metabolized
same,Bacterial Biotransformation,[20],Compound NOT metabolized
same,Bacterial Biotransformation,[15],Compound NOT metabolized
same,Bacterial Biotransformation,[16],Compound NOT metabolized
same,Bacterial Biotransformation,[17],Compound NOT metabolized
same,Bacterial Biotransformation,[18],Compound NOT metabolized
COc1ccc2[nH]c([S+]([O-])Cc3ncc(C)c(OC)c3C)nc2n1 (stereo not given) [TENATOPRAZOLE],Bacterial Biotransformation,[1],Compound metabolized
same,Bacterial Biotransformation,[3],Compound metabolized
same,Bacterial Biotransformation,[4],Compound metabolized
same,Bacterial Biotransformation,[5],Compound NOT metabolized
same,Bacterial Biotransformation,[6],Compound NOT metabolized
same,Bacterial Biotransformation,[7],Compound metabolized
same,Bacterial Biotransformation,[8],Compound metabolized
same,Bacterial Biotransformation,[9],Compound NOT metabolized
same,Bacterial Biotransformation,[10],Compound metabolized
same,Bacterial Biotransformation,[11],Compound metabolized
same,Bacterial Biotransformation,[12],Compound NOT metabolized
same,Bacterial Biotransformation,[13],Compound metabolized
same,Bacterial Biotransformation,[14],Compound metabolized
same,Bacterial Biotransformation,[20],Compound metabolized
same,Bacterial Biotransformation,[15],Compound metabolized
same,Bacterial Biotransformation,[16],Compound NOT metabolized
same,Bacterial Biotransformation,[17],Compound NOT metabolized
same,Bacterial Biotransformation,[18],Compound metabolized
same,Bacterial Biotransformation,[19],Compound metabolized
Cc1ccc(/C(=C\CN2CCCC2)c2ccccn2)cc1 [TRIPROLIDINE],Bacterial Biotransformation,[2],Compound NOT metabolized
same,Bacterial Biotransformation,[3],Compound NOT metabolized
same,Bacterial Biotransformation,[4],Compound NOT metabolized
same,Bacterial Biotransformation,[5],Compound NOT metabolized
same,Bacterial Biotransformation,[6],Compound NOT metabolized
same,Bacterial Biotransformation,[7],Compound metabolized
same,Bacterial Biotransformation,[8],Compound NOT metabolized
same,Bacterial Biotransformation,[9],Compound NOT metabolized
same,Bacterial Biotransformation,[10],Compound NOT metabolized
same,Bacterial Biotransformation,[11],Compound NOT metabolized
same,Bacterial Biotransformation,[12],Compound NOT metabolized
same,Bacterial Biotransformation,[13],Compound NOT metabolized
same,Bacterial Biotransformation,[14],Compound NOT metabolized
same,Bacterial Biotransformation,[20],Compound NOT metabolized
same,Bacterial Biotransformation,[15],Compound NOT metabolized
same,Bacterial Biotransformation,[16],Compound NOT metabolized
same,Bacterial Biotransformation,[17],Compound NOT metabolized
same,Bacterial Biotransformation,[18],Compound NOT metabolized
same,Bacterial Biotransformation,[19],Compound NOT metabolized
Cc1cn([C@H]2C[C@H](N=[N+]=[N-])[C@@H](CO)O2)c(=O)[nH]c1=O [ZIDOVUDINE],Bacterial Biotransformation,[1],Compound metabolized
same,Bacterial Biotransformation,[2],Compound NOT metabolized
same,Bacterial Biotransformation,[3],Compound NOT metabolized
same,Bacterial Biotransformation,[4],Compound metabolized
same,Bacterial Biotransformation,[5],Compound NOT metabolized
same,Bacterial Biotransformation,[6],Compound NOT metabolized
same,Bacterial Biotransformation,[7],Compound NOT metabolized
same,Bacterial Biotransformation,[8],Compound metabolized
same,Bacterial Biotransformation,[9],Compound NOT metabolized
same,Bacterial Biotransformation,[10],Compound NOT metabolized
same,Bacterial Biotransformation,[11],Compound NOT metabolized
same,Bacterial Biotransformation,[13],Compound NOT metabolized
same,Bacterial Biotransformation,[14],Compound NOT metabolized
same,Bacterial Biotransformation,[20],Compound metabolized
same,Bacterial Biotransformation,[15],Compound NOT metabolized
same,Bacterial Biotransformation,[16],Compound NOT metabolized
same,Bacterial Biotransformation,[17],Compound NOT metabolized
same,Bacterial Biotransformation,[18],Compound NOT metabolized
same,Bacterial Biotransformation,[19],Compound NOT metabolized
